Results as given in US9265764B2, “Uses of chemicals to modulate GSK-3 signaling for treatment of bipolar disorder and other brain disorders” (Massachusetts Institute of Technology, priority 2009, dated 2016).
Values belong to the molecule of their own block, whether it stands above or below them.

Columns and labels:
[1] = system: βCat-eGFP reporter in human U2OS cells; test: Cellular β-catenin stability assay (βCat-eGFP reporter); assay type: cell-based; details: for β-catenin accumulation: βCat-eGFP reporter assay
Protocol: Cellular-β-Catenin Stability Assay: To study effects of small molecules on GSK-3/β-catenin signaling in cells, we optimized an image-based assay that measures β-catenin stability. This assay uses human U2OS cells engineered to express a genetically encoded fluorescent reporter consisting of a fusion of β-catenin to enhanced green fluorescent protein (eGFP) that were obtained from Thermo Fisher Scientific (Denmark). […] Lithium treatments at 10 mM and valproic acid at 10 mM also have the same effect in this assay. […] Cells were imaged on an ImageXpress Micro (Molecular Devices) automated microscope at 10× magnification with detection of both DNA and eGFP fluorescence. The percentage of eGFP positive cells was calculated and compared to an untreated control.

[2] = system: amphetamine-induced hyperactivity in C57BL/6J mice; test: Amphetamine-induced hyperactivity (AIH) in C57BL/6J mice; assay type: in vivo
human GSK-3β = molecular target: T1, human GSK-3β (Homo sapiens, UniProt P49841); test: in vitro GSK-3β kinase assay (Kinase-Glo luminescence); assay type: biochemical; details: FIG. 9 dose response, n=4
T1 construct: Recombinant full-length human GSK-3β (NM_002093) with an N-terminal GST tag; GST (N); purchased BPS Biosciences 40007; host or cells: Sf9 insect cells (baculovirus)

panel of 358 kinases = test: KINOMEscan active-site dependent competition binding assay; details: 10 μM
[3] = system: TCF/LEF reporter in HEK293 cells; test: TCF/LEF reporter assay with lithium; assay type: cell-based; details: FIG. 12
[4] = system: amphetamine-induced hyperactivity in DBA/2J mice; test: Lithium-nonresponsive AIH in DBA/2J mice; assay type: in vivo; details: for effect on AIH: DBA/2J
[5] = Serum level after systemic administration
[6] = system: dopamine transporter (DAT) knockout mice; details: 10 mg/kg; i.p.; cited from earlier work
[7] = ICV 1 μl of 0.1, 1.4, 14 μg/μl, FIGS. 16-18
[8] = intra-striatal infusion, 1 μl of 1.4 μg/μl, FIG. 22

T1 sequence (P49841 1-433 isoform P49841-2): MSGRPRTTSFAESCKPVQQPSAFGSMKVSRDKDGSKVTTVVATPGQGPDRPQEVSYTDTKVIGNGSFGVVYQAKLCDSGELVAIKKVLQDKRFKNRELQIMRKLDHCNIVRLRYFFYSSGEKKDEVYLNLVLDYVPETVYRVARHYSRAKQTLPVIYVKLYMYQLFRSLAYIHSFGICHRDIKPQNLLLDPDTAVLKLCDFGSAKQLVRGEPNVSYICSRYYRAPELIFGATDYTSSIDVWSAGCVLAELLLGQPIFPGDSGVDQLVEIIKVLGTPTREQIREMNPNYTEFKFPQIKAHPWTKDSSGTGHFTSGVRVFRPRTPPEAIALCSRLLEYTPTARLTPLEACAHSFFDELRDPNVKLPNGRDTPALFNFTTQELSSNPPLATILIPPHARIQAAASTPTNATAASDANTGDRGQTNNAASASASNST

SMILES: COc1ccc(CNC(=O)Nc2ncc([N+](=O)[O-])s2)cc1 [AR-A014418]
eGFP fluorescence and accumulation of βCat-eGFP reporter ([1]; 20 μM over 20 hrs): dose dependent increase in eGFP fluorescence | effect on AIH ([2]; 9 mg/kg i.p., FIG. 19): None of these GSK-3 inhibitors showed a significant effect on hyperactivity

IC50 (human GSK-3β): ~6.9 nM
SMILES: CN(C)CCCn1cc(C2=C(c3c[nH]c4ccccc34)C(=O)NC2=O)c2ccccc21 [BIM-I, bisindoylmaleimide I]

Number of Binding Targets (kinases) (panel of 358 kinases): 10 | maximum serum level ([5]; 3.125 mg/kg systemic, extrapolated): 3 to 4 µM | maximum serum level ([5]; 3.125 mg/kg systemic, extrapolated, listed as compound of formula 7): about 4 μM | maximum serum level ([5]; 12.5 mg/kg systemic): about 15 μM | maximum serum level ([5]; 50 mg/kg systemic): about 69 μM
SMILES: Cc1c[nH]c(-c2cnc(NCCNc3ccc(C#N)cn3)nc2-c2ccc(Cl)cc2Cl)n1 [CHIR-99021]
TCF/LEF reporter signal: effect of addition of lithium ([3]; high concentration of Chir99021): synergistic effect | TCF/LEF reporter signal: effect of addition of lithium ([3]; lower concentrations of Chir99021): only an additive effect | effect on AIH ([4]; 50 mg/kg i.p., FIG. 26): significant attenuation of AIH | effect on AIH ([4]; ICV 0.14 μg (1 μl infusion), FIG. 28): significantly attenuated AIH | effect on AIH ([4]; ICV 1.4 μg (1 μl infusion), FIG. 28): significantly attenuated AIH | lowest dose that attenuated AIH ([4]; systemic (i.p.), DBA/2J mice, FIG. 27): 0.78 mg/kg | effect on AIH ([2]; 6.25 mg/kg single dose i.p., FIG. 24): non-effective dose | effect on AIH ([2]; 12.5 mg/kg single dose i.p., FIG. 24): significantly decreased amphetamine-induced hyperactivity | effect on AIH ([2]; 25 mg/kg single dose i.p., FIG. 24): significantly decreased amphetamine-induced hyperactivity | effect on AIH [2, 7]: effective in attenuating AIH to levels comparable to those observed after lithium administration | effect on AIH [2, 8]: almost complete ablation of the amphetamine-induced hyperactivity | lowest dose that attenuated AIH ([2]; systemic (i.p.), C57BL/6J mice): 12.5 mg/kg

SMILES: Cn1cc(C2=C(c3ccc(Cl)cc3Cl)C(=O)NC2=O)c2ccccc21 [SB-216763]
Number of Binding Targets (kinases) (panel of 358 kinases): 31 | hyperactivity in DAT knockout mice [6]: attenuates hyperactivity | effect on AIH ([2]; 5, 10, 20 mg/kg i.p.): None of these GSK-3 inhibitors showed a significant effect on hyperactivity | effect on AIH ([2]; ICV in DMSO vehicle): None of these GSK-3 inhibitors showed a significant effect on hyperactivity

Number of Binding Targets (kinases) (panel of 358 kinases): 75
SMILES: Cn1cc(C2=C(c3cn(C4CCN(Cc5ccccn5)CC4)c4ccccc34)C(=O)NC2=O)c2ccccc21 [enzastaurin]
β-catenin accumulation [1]: able to cause β-catenin accumulation | effect on AIH [2, 7]: no effect in AIH | effect on AIH [2, 8]: modestly effective

Number of Binding Targets (kinases) (panel of 358 kinases): 95
SMILES: CN(C)C[C@@H]1CCn2cc(c3ccccc32)C2=C(C(=O)NC2=O)c2cn(c3ccccc23)CCO1 [ruboxistaurin]
β-catenin accumulation [1]: able to cause β-catenin accumulation | effect on AIH [2, 7]: moderate attenuating effect

SMILES: CCCC(CCC)C(=O)O [valproic acid]
eGFP fluorescence and accumulation of βCat-eGFP reporter ([1]; 10 mM): same effect
